This is an account of results in US20040171086A1, “Selective modulation of TLR-mediated biological activity” (3M Innovative Properties Company, priority 2003, published 2004).

Structures are written as SMILES.

The target of this experiment is T1, TLR6 (Homo sapiens, UniProt Q9Y2C9).
T1 construct: expressed in transfected cells; host or cells: Namalwa (ATCC CRL-1432), pCI-TLR6 vector, G418 selected
T1 sequence (Q9Y2C9 32-796): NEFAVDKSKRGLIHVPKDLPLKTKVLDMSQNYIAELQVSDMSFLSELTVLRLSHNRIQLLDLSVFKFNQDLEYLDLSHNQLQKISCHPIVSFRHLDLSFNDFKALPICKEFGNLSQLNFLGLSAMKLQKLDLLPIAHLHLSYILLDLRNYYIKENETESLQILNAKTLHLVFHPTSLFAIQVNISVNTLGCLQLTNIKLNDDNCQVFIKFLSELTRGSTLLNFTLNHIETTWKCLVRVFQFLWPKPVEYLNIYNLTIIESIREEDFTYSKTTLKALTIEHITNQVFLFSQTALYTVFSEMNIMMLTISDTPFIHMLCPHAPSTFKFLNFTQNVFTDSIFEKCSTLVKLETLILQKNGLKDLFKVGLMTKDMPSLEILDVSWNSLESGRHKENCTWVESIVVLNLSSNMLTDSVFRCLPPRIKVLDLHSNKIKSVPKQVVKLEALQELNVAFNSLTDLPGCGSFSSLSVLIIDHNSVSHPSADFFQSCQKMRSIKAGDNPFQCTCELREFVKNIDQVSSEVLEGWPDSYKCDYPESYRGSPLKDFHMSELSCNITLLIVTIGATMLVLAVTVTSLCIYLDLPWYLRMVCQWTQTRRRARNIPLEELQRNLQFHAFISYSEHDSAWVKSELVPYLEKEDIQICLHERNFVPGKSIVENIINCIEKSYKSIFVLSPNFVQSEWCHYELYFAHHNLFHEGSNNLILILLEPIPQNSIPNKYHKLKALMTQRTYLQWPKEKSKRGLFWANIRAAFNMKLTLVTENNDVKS
Kind of experiment: IFN-α1-luciferase reporter assay in genetically modified Namalwa cells, TLR6. It counts as cell-based. To be noted: 10 μM IRM, 18 hours. The method, then:
Results are shown in Table 6 and are expressed as fold induction of IFN-α1 —induced luciferase signal, again with respect to a vehicle control.
The assay identified TLR6-selective compounds (i.e., compounds that modulate TLR6-mediated activity, but not TLR7-mediated activity), TLR7-selective compounds (compounds that modulate TLR7-mediated activity, but not TLR6-mediated activity), and compounds that modulate cellular activity through both TLR6 and TLR7.
Unless otherwise indicated, all incubations were performed at 37° C. with 5% CO2 at 98% humidity.
Culture medium was prepared from complete RPMI 1640 medium (BioSource International, Inc., Camarillo, Calif.). Fetal bovine serum (Atlas Biologicals, Inc., Ft. Collins, Colo.) was added to a final concentration of 7.5% (vol/vol); L-glutamine (BioSource International, Inc.) was added to 5 mM; and sodium pyruvate (BioSource International, Inc.) was added to 1 mM.
Namalwa cells were grown by incubation in culture medium overnight. Cells were harvested by centrifugation in a tabletop centrifuge (1200 RPM for 5 minutes), and then resuspended in phosphate buffered sucrose to a concentration of 1.3×10^7 cells/mL.
For each transfection, a 750 μL aliquot of the cell suspension was placed in an electroporation cuvette with 4 mm gaps. 10 μg of the pIFN-α1-luc vector and 10 μg of the pCI-TLR6 vector were added to the electroporation cuvette. The cell and vector mixtures were incubated at room temperature for 5 minutes. The cells were electroporated using a BioRad Gene Pulser (BioRad Laboratories, Hercules, Calif.) set to at 500 μF capacitance and […], then incubated at room temperature for 5 minutes.
The electroporated cells were suspended in 10 mLs of culture medium and incubated overnight. Dead cells and debris were removed after 24 hours using a MACS Dead Cell Removal kit (Miltenyi Biotec, Auburn, Calif.). Cells were resuspended in 10 mL of culture medium and incubated for an additional 24 hours.
Transfected cells were selected by adding G418 (Promega Corp., Madison, Wis.) to a final concentration of 1 mg/mL and incubating the cells for seven days.
The selected transfected cells were counted and resuspended to a concentration of 1×10^6 cell per mL in culture medium. 100 μl aliquots of cells were placed in the wells of a white-walled, white-bottomed 96-well plate (Corning, Inc., Corning, N.Y.). 1.0 μL of an IRM compound from Table 1 (prepared at 1 mM in 100% DMSO) was added to some cell aliquots so that the final concentration of IRM compound was 10 μM. As a positive control, some cell aliquots were incubated with Sendai virus instead of IRM compound. As a negative control, some cell aliquots were incubated with DMSO without IRM compound. In all cases, the cells were incubated for 18 hours.
The plates were equilibrated to room temperature before one volume of reconstituted LucLight Plus (Packard Instruments, Meriden, Conn.) was added to each aliquot of cells. Each well of the plate was read on an LJL Analyst (LJL Biosystems, Inc., Sunnyvale, Calif.) set with a 5 minute dark adapt. Results are shown in Table 6 and are expressed as fold increase of the IFN-αl—induced luciferase signal compared to a DMSO control.
Regarding `COCCc1nc2c(N)nc3ccccc3c2n1CCOCCNC(=O)Nc1ccccc1` [IRM19, N-(2-{2-[4-amino-2-(2-methoxyethyl)-1H-imidazo[4,5-c]quinolin-1-yl)ethoxy}ethyl)-N′-phenylurea], the “TLR6: fold increase of the IFN-α1-induced luciferase signal compared to a DMSO control” value (shortened to “TLR6: fold increase”) is listed as 12.60 fold increase.

For the compound `CCc1nc2c(N)nc3ccccc3c2n1CCCCSc1cc(Cl)cc(Cl)c1` [IRM14, 1-{4-[(3,5-dichlorophenyl)thio]butyl}-2-ethyl-1H-imidazo[4,5-c]quinolin-4-amine], the “TLR6: fold increase” value is 2.73 fold increase.

In the case of `CCc1nc2c(N)nc3ccccc3c2n1CCCCNC(=O)C1CCCCC1` [IRM8, N-[4-(4-amino-2-ethyl-1H-imidazo[4,5-c]quinolin-1-yl)butyl]cyclohexanecarboxamide], the “TLR6: fold increase” value stood at 12.49 fold increase.

With `COCCc1nc2c(N)nc3c(c2n1CC(C)(C)NS(C)(=O)=O)CCCC3` [IRM22, N-{2-[4-amino-2-(2-methoxyethyl)-6,7,8,9-tetrahydro-1H-imidazo[4,5-c]quinolin-1-yl]-1,1-dimethylethyl}methanesulfonamide], the “TLR6: fold increase” value is given as 16.25 fold increase.

Turning to `COCCc1nc2c(N)nc3ccccc3c2n1CCOCCN(C)C(=O)C1CCCCC1` [IRM3, N-(2-{2-[4-amino-2-(2-methoxyethyl)-1H-imidazo[4,5-c]quinolin-1-yl]ethoxy}ethyl)-N-methylcyclohexanecarboxamide], the “TLR6: fold increase” value was 10.24 fold increase.

Take `CCOCc1nc2c(N)nc3ccccc3c2n1CC(C)C` [IRM1, 2-(ethoxymethyl)-1-(2-methylpropyl)-1H-imidazo[4,5-c]quinolin-4-amine]: the “TLR6: fold increase” value is 7.93 fold increase.

Turning to `CCCCc1nc2c(N)nc3ccccc3c2n1CCCCCS(C)(=O)=O` [IRM6, 2-butyl-1-[5-(methylsulfonyl)pentyl]-1H-imidazo[4,5-c]quinolin-4-amine], the “TLR6: fold increase” value turned out to be 13.61 fold increase.

Turning to `CCC(C)NC(=S)NCCn1c(CCOC)nc2c(N)nc3ccccc3c21` (stereo not drawn) [IRM21, N-{2-[4-amino-2-(2-methoxyethyl)-1H-imidazo[4,5-c]quinolin-1-yl]ethyl}-N′-sec-butylthiourea], the “TLR6: fold increase” value is given as 17.98 fold increase.

Consider `CCOCc1nc2c(N)nc3c(c2n1CC(C)(C)O)CCCC3` [IRM16, 4-amino-2-ethoxymethyl-α,α-dimethyl-6,7,8,9-tetrahydro-1H-imidazo[4,5-c]quinoline-1-ethanol], for which the “TLR6: fold increase” value was found to be 12.95 fold increase.
